Assay results as given in article PMC11212047, “Merging Flow Synthesis and Enzymatic Maturation to Expand the Chemical Space of Lasso Peptides” (Journal of the American Chemical Society, 2024).
Where no end group is shown, it is not given here.

Test system: Salmonella enterica serotype Enteritidis
Experiment: Spot-on-lawn antimicrobial activity assay
Assay type: cell-based
Conditions: spot-on-lawn on M63 soft agar, 37 °C overnight; dried maturation assay in MeOH (41.7 µM if full conversion, 5 µL; Tyr9 derivatives also 69.5 µM, 8 µL); halo diameters
Procedure: We next evaluated all lasso peptides and their corresponding branched-cyclic peptides for antimicrobial activity in spot-on-lawn assays against Salmonella enterica serotype Enteritidis.[42] […] Moreover, steric constraints in the tight binding pocket are a limiting factor for Tyr-9 substitutions.
4.3 Antimicrobial activity assay against Salmonella strain
The antimicrobial activity assay of MccJ25-derivatives was performed against the indicative strain Salmonella enterica serotype Enteritidis.
4.3.1 Preparation of M63 agar
For M63 agar plates (20 g agar/L): KH2PO4 (3 g/L), K2HPO4 (7 g/L), (NH4)2SO4 (2 g/L), Casamino acids (1 g/L) were dissolved in 900 mL water. Agar (20 g/L) was added, and the suspension was filled up to 1 L and autoclaved (121 °C for 20 min). […]
The indicative strain is freshly streaked on a LB agar plate and incubated at 37 °C overnight. […] The plates were inspected for bacterial growth and possible halos were measured. […]
Fig. S77: Antimicrobial activity test using spot-on-lawn assays with dried m aturation assay dissolved in 30 µL MeOH: (A) Peptides analyzed after maturation assay. (B) Photos of spot -on-lawn assays and measured halo diameters to evaluate trends in activity. The peptide with three D-amino acids was analyzed on a different date, ther efore, diameter of control C (MccJ25) . […]

Substance	antimicrobial activity of enzymatically matured lasso peptides (in words)
microcin J25 (GGAGHVPEYFVGIGTPISFYG; lactam (positions not given here); also: lasso peptide: isopeptide ring closure, ring positions not given here; UniProt Q9X2V7 38-58, looked up) [1′, native lasso peptide (21 AA), matured from WT-McjA, reference compound]	activities were only observed
9′: His-12 MccJ25 mutant (His-12, Phe-13, Ile-15), L-His (GGAGHVPEYFVHFGIPISFYG; ends and bridges not checked; also: lasso peptide: isopeptide ring closure, ring positions not given here; UniProt Q9X2V7 38-58, looked up, variant G12H I13F T15I)	slightly stronger activity
